According to ChEMBL document CHEMBL3232720, “Boseongazepines A-C, pyrrolobenzodiazepine derivatives from a Streptomyces sp. 11A057” (Bioorg Med Chem Lett, 2014):
The source made the active and inactive calls. The calls are words filed in the database; no cut-off is given here.

Legend:
Jurkat = test: Growth inhibition of human Jurkat cells after 96 hrs by EZ-CyTox cell viability assay; type: functional, cell-based
K562 = test: Growth inhibition of human K562 cells after 96 hrs by EZ-CyTox cell viability assay; type: functional, cell-based; conditions: K562, 96 h
HL-60 = test: Growth inhibition of human HL60 cells after 96 hrs by EZ-CyTox cell viability assay; type: functional, cell-based; conditions: HL-60, 96 h
HepG2 = test: Growth inhibition of human HepG2 cells after 96 hrs by EZ-CyTox cell viability assay; type: functional, cell-based; conditions: HepG2, 96 h
Escherichia coli = test: Antimicrobial activity against Escherichia coli assessed as growth inhibition at 50 ug/disk after 48 hrs by paper disk method; type: functional, organism-based
Bacillus subtilis = test: Antimicrobial activity against Bacillus subtilis assessed as growth inhibition at 50 ug/disk after 48 hrs by paper disk method; type: functional, organism-based
Staphylococcus aureus = test: Antimicrobial activity against Staphylococcus aureus assessed as growth inhibition at 50 ug/disk after 48 hrs by paper disk method; type: functional, organism-based
Salinivibrio costicola = test: Antimicrobial activity against Vibrio costicola assessed as growth inhibition at 50 ug/disk after 48 hrs by paper disk method; type: functional, organism-based
Candida albicans = test: Antimicrobial activity against Candida albicans assessed as growth inhibition at 50 ug/disk after 48 hrs by paper disk method; type: functional, organism-based
Aspergillus fumigatus = test: Antimicrobial activity against Aspergillus fumigatus assessed as growth inhibition at 50 ug/disk after 48 hrs by paper disk method; type: functional, organism-based

COc1cccc2c1NC[C@@H]1CC(C(C)=O)=CN1C2=O
IC50 (Jurkat): 72 µM
IC50 (K562): > 100 µM
IC50 (HL-60): > 100 µM
IC50 (HepG2): 56.1 µM
growth inhibition (GI) (Escherichia coli): inactive
growth inhibition (GI) (Bacillus subtilis): inactive
growth inhibition (GI) (Staphylococcus aureus): inactive
growth inhibition (GI) (Salinivibrio costicola): inactive
growth inhibition (GI) (Candida albicans): inactive
growth inhibition (GI) (Aspergillus fumigatus): inactive

C/C=C1\C[C@H]2CNc3c(OC)cccc3C(=O)N2C1 [USABAMYCIN B]
IC50 (Jurkat): 6.26 µM
IC50 (K562): 10.1 µM
IC50 (HL-60): 13.5 µM
IC50 (HepG2): 10.6 µM
growth inhibition (GI) (Escherichia coli): inactive
growth inhibition (GI) (Bacillus subtilis): inactive
growth inhibition (GI) (Staphylococcus aureus): inactive
growth inhibition (GI) (Salinivibrio costicola): inactive
growth inhibition (GI) (Candida albicans): inactive
growth inhibition (GI) (Aspergillus fumigatus): inactive

C/C=C1\C[C@H]2CNc3ccccc3C(=O)N2C1
IC50 (Jurkat): 23.9 µM
IC50 (K562): 58.8 µM
IC50 (HL-60): 64.5 µM
IC50 (HepG2): 68.9 µM
growth inhibition (GI) (Escherichia coli): inactive
growth inhibition (GI) (Bacillus subtilis): inactive
growth inhibition (GI) (Staphylococcus aureus): inactive
growth inhibition (GI) (Salinivibrio costicola): inactive
growth inhibition (GI) (Candida albicans): inactive
growth inhibition (GI) (Aspergillus fumigatus): inactive

C/C=C1\C[C@H]2C(=O)Nc3c(OC)cccc3C(=O)N2C1
IC50 (Jurkat): > 100 µM
IC50 (K562): > 100 µM
IC50 (HL-60): > 100 µM
IC50 (HepG2): > 100 µM
growth inhibition (GI) (Escherichia coli): inactive
growth inhibition (GI) (Bacillus subtilis): inactive
growth inhibition (GI) (Staphylococcus aureus): inactive
growth inhibition (GI) (Salinivibrio costicola): inactive
growth inhibition (GI) (Candida albicans): inactive
growth inhibition (GI) (Aspergillus fumigatus): inactive
